Laboratory results reported in patent US12065442B2, “Tropomyosin receptor kinase (TRK) degradation compounds and methods of use” (Cullgen (Shanghai), Inc., priority 2018, dated 2024).
pIC50: −log10 of the molar value.

These compounds were tested on KM12 cells (assay: Cell viability assay (CellTiter-Glo) in KM12 cells). Conditions: Homo sapiens, 72 h; Table 3; KM12 cell viability, CellTiter-Glo, 3 days; read-out: IC50.
Type: cell-based
Work on `O=C1CCC(N2C(=O)c3ccc(NCCCC(=O)N4CCN(c5cccc(-c6cnc7ccc(N8CCC[C@@H]8c8cccc(F)c8)nn67)n5)CC4)cc3C2=O)C(=O)N1` (stereo partly drawn) [TR-168, 2-(2,6-Dioxopiperidin-3-yl)-5-((4-(4-(6-(6-((R)-2-(3-fluorophenyl)pyrrolidin-1-yl)imidazo[1,2-b]pyridazin-3-yl)pyridin-2-yl)piperazin-1-yl)-4-oxobutyl)amino)isoindoline-1,3-dione] yielded a pIC50 of 8.54.
Work on `O=C1CCC(N2C(=O)c3ccc(NCCCC(=O)N4CCN(c5ccc(C(=O)Nc6n[nH]c7ccc(Cc8cc(F)cc(F)c8)cc67)c(NC6CCOCC6)c5)CC4)cc3C2=O)C(=O)N1` (stereo not drawn) [TR-169, N-(5-(3,5-Difluorobenzyl)-1H-indazol-3-yl)-4-(4-(4-((2-(2,6-dioxopiperidin-3-yl)-1,3-dioxoisoindolin-5-yl)amino)butanoyl)piperazin-1-yl)-2-((tetrahydro-2H-pyran-4-yl)amino)benzamide] yielded a pIC50 of 8.80.
Work on `O=C1CCC(N2C(=O)c3ccc(N4CCN(c5cccc(-c6cnc7ccc(N8CCC[C@@H]8c8cccc(F)c8)nn67)n5)CC4)cc3C2=O)C(=O)N1` (stereo partly drawn) [TR-170, 2-(2,6-Dioxopiperidin-3-yl)-5-(4-(6-(6-((R)-2-(3-fluorophenyl)pyrrolidin-1-yl)imidazo[1,2-b]pyridazin-3-yl)pyridin-2-yl)piperazin-1-yl)isoindoline-1,3-dione] yielded a pIC50 of 7.82.
`O=C1CCC(N2C(=O)c3ccc(NC4CCN(c5cccc(-c6cnc7ccc(N8CCC[C@@H]8c8cccc(F)c8)nn67)n5)CC4)cc3C2=O)C(=O)N1` (stereo partly drawn) [TR-174, 2-(2,6-dioxopiperidin-3-yl)-5-((1-(6-(6-((R)-2-(3-fluorophenyl)pyrrolidin-1-yl)imidazo[1,2-b]pyridazin-3-yl)pyridin-2-yl)piperidin-4-yl)amino)isoindoline-1,3-dione] was tested, and the pIC50 was 7.73.
With `O=C1CCC(N2C(=O)c3ccc(NC4CN(c5cccc(-c6cnc7ccc(N8CCC[C@@H]8c8cccc(F)c8)nn67)n5)C4)cc3C2=O)C(=O)N1` (stereo partly drawn) [TR-175, 2-(2,6-Dioxopiperidin-3-yl)-5-((1-(6-(6-((R)-2-(3-fluorophenyl)pyrrolidin-1-yl)imidazo[1,2-b]pyridazin-3-yl)pyridin-2-yl)azetidin-3-yl)amino)isoindoline-1,3-dione] the pIC50 was 7.39.
`O=C1CCC(N2C(=O)c3ccc(NCCOCCN4CCN(c5cccc(-c6cnc7ccc(N8CCC[C@@H]8c8cccc(F)c8)nn67)n5)CC4)cc3C2=O)C(=O)N1` (stereo partly drawn) [TR-176, 2-(2,6-Dioxopiperidin-3-yl)-5-((2-(2-(4-(6-(6-((R)-2-(3-fluorophenyl)pyrrolidin-1-yl)imidazo[1,2-b]pyridazin-3-yl)pyridin-2-yl)piperazin-1-yl)ethoxy)ethyl)amino)isoindoline-1,3-dione] showed a pIC50 of 7.74.
`O=C1CCC(N2C(=O)c3ccc(NCC4CCN(c5cccc(-c6cnc7ccc(N8CCC[C@@H]8c8cccc(F)c8)nn67)n5)CC4)cc3C2=O)C(=O)N1` (stereo partly drawn) [TR-178, 2-(2,6-Dioxopiperidin-3-yl)-5-(((1-(6-(6-((R)-2-(3-fluorophenyl)pyrrolidin-1-yl)imidazo[1,2-b]pyridazin-3-yl)pyridin-2-yl)piperidin-4-yl)methyl)amino)isoindoline-1,3-dione] was tested, and the pIC50 was 7.17.
For `O=C1CCC(N2C(=O)c3ccc(NCC4CN(c5cccc(-c6cnc7ccc(N8CCC[C@@H]8c8cccc(F)c8)nn67)n5)C4)cc3C2=O)C(=O)N1` (stereo partly drawn) [TR-179, 2-(2,6-Dioxopiperidin-3-yl)-5-(((1-(6-(6-((R)-2-(3-fluorophenyl)pyrrolidin-1-yl)imidazo[1,2-b]pyridazin-3-yl)pyridin-2-yl)azetidin-3-yl)methyl)amino)isoindoline-1,3-dione], the pIC50 was 7.63.
For `O=C1CCC(N2C(=O)c3ccc(NCCC4CCN(c5cccc(-c6cnc7ccc(N8CCC[C@@H]8c8cccc(F)c8)nn67)n5)CC4)cc3C2=O)C(=O)N1` (stereo partly drawn) [TR-180, 2-(2,6-Dioxopiperidin-3-yl)-5-((2-(1-(6-(6-((R)-2-(3-fluorophenyl)pyrrolidin-1-yl)imidazo[1,2-b]pyridazin-3-yl)pyridin-2-yl)piperidin-4-yl)ethyl)amino)isoindoline-1,3-dione], the pIC50 was 7.47.
